Measured values taken from patent publication US11773078B2, “Furin inhibitors” (Glaxosmithkline Intellectual Property Development Limited, priority 2018, dated 2023).
Structures can show the parent of a compound that is named as a salt.

Tests used:
[1] = system: epithelial sodium channel (ENaC); experiment: Transepithelial Electrical Resistance (TEER) assay, primary CF delF508 or non-CF HBE cells (FIG. 6-9); format: cell-based, human; details: compared to Example 11; only mid-μM concentrations partially effective; FIG. 8 and FIG. 9
Method: Primary cultures of CF delF508 or non-CF HBE cells are seeded onto permeable filter supports and grown for 12-14 days for a significant RTE to be measured for TEER assays.
When the ENaC is active under basal conditions (at least in part due to protease cleavage inside the cell or at the apical membrane), there is a finite RTE that is affected by the Na+ current flowing through ENaC heterotrimers (αβγ or δβγ).

[2] = target: T1, Furin (108-574-Tev-Flag-His) enzyme (Homo sapiens, UniProt P09958); experiment: Furin enzyme assay; format: biochemical
T1 construct: Furin (108-574-Tev-Flag-His) enzyme was expressed and purified from CHO cells; TEV cleavage site (C); FLAG (C); His (C); made in house; host or cells: CHO cells
Summary of the method: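 Compounds ran as 11-point threefold dilutions (0.00017–10 μM final) against 40 pM furin, purified from CHO cells, for 2 h at room temperature. Buffer: 100 mM HEPES pH7.5 with 1 mM CaCl2 and 0.005% Triton X-100. Envision readout. Four-parameter curve gives pXC50.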

[3] = target: T2, furin (endogenous protease) in U20S cells (Homo sapiens, UniProt P09958); experiment: Furin cell-based assay (image-based, Golgi-targeted GFP with BMP10 furin/PCSK cleavage site); details: 24-hour incubation, read-out: furin golgi cell pXC50 (converted);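 further: Read-out is mean GFP fluorescence of Golgi puncta per cell by high-content imaging, retained when furin inhibited, over an eleven-point 0.00017–10 µM series, four-parameter fit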
T2 construct: the endogenous protease cleaves GFP; endogenous in cells; host or cells: U2OS cells transduced with a BacMam reporter

[4] = system: hydroxyproline (a specific marker for collagen) in mouse lung; experiment: Bleomycin induced lung fibrosis model: hydroxyproline assay; format: in vivo; details: relative to levels induced by Bleomycin in vehicle treated animals, *p < 0.05
Method: (§1) Preclinical pulmonary fibrosis can be induced by single instillation of Bleomycin to the mouse lung. A 15-day Bleomycin protocol was developed to evaluate compounds of the invention in vivo for their ability to inhibit TGFβ secretion and collagen deposition in the mouse lung. On the day before Bleomycin instillation, compounds were administrated to mice based on the appropriate route and frequency. On the study initiation day, under Ketamine (80 mg/kg) and Xylazine (10 mg/kg) anesthesia, all the animals were cannulated oro-tracheally and 50 μL of normal saline (Sham control) or 0.03 U Bleomycin in 50 μL saline (all groups except sham control group) was delivered into the trachea. Compounds were dosed daily until the end of study on Day 15. On termination day, animals were euthanized using CO2 inhalation. The right lung was collected, washed in normal saline, weighed, flash frozen in liquid nitrogen and stored at −80° C. for hydroxyproline (a specific marker for collagen) and TGFβ assays.
(§2) Flash frozen whole right lung tissues were homogenized in 500 μL of RIPA buffer containing PMSF and protease inhibitor cocktail using zirconium oxide bead based homogenizer (Bullet blender Gold, NextAdvance, Germany). Briefly, tissues were spun in the homogenizer at 4° C. for three cycles of 10 minutes each at 1000 g. A complete uniform tissue mixture was obtained using this procedure. The homogenate volume was made up to 1.5 mL by adding 1 mL of RIPA buffer containing PMSF and protease inhibitor cocktail to 500 μL of homogenate. The homogenate was stored as aliquots of 100-500 μL each at −80° C.
Acid hydrolysis: 500 μL of the homogenized lung parenchyma was transferred to glass vials, and an equal volume of 12N HCl was added (final concentration of HCl: 6N). The vials were purged with nitrogen gas, sealed and incubated overnight (16 h) under anoxic conditions at 110° C.
Post incubation procedures: 35 μL of the sample from each tube or standard (prepared by serial dilution of hydroxyproline stock solution) was added onto a 96 well plate and the assay was performed as per the kit protocol (Quickzyme Biosciences: Cat #: QZBHYPR05). After the final color development, absorbance was measured by colorimetric analysis at 570 nm (using Thermoscan spectrum (Plate Reader) and results were recorded. Standard curve (linear graph) was generated by using hydroxyproline standards provided in the Quickzyme kit.

TGFβ in mouse lung = experiment: Bleomycin induced lung fibrosis model: TGFβ assay; format: in vivo; details: relative to levels induced by Bleomycin in vehicle treated animals, *p < 0.05
Method: as §1, §2
Lung tissue homogenates (500 μL) were spun at 13,000 rpm for 20 minutes at 4° C. and supernatants were collected for TGFβ estimation. The assay was performed according to the manufacturer's manual (R&D systems: Cat #SMB100B). Briefly, the lung homogenates were activated by acid activation followed by neutralization to convert latent TGFβ to active TGFβ and the total TGFβ levels in supernatants were measured. Total protein levels in the lung supernatant were also determined.

[5] = 10 mg/kg, Intra-peritoneal, Twice daily

T2 sequence (P09958 108-794): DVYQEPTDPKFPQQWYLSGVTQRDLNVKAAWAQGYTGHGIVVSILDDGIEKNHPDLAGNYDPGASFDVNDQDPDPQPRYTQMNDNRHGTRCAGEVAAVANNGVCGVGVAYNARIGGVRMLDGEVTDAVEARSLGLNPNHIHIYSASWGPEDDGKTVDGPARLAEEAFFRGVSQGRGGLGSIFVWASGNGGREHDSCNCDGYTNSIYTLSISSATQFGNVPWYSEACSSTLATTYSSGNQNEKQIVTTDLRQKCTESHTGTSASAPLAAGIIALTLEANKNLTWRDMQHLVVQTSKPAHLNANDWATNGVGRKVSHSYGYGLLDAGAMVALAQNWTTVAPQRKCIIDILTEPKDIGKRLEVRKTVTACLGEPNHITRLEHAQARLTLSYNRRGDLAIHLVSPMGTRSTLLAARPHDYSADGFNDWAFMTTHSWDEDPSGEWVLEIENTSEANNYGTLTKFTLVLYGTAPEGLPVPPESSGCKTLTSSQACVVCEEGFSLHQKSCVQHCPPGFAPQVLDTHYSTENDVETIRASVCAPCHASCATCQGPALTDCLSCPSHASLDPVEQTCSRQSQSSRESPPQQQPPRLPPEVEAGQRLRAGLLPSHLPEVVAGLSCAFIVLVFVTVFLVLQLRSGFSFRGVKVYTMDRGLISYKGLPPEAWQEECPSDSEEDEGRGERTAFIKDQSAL
T1 sequence (P09958 108-574): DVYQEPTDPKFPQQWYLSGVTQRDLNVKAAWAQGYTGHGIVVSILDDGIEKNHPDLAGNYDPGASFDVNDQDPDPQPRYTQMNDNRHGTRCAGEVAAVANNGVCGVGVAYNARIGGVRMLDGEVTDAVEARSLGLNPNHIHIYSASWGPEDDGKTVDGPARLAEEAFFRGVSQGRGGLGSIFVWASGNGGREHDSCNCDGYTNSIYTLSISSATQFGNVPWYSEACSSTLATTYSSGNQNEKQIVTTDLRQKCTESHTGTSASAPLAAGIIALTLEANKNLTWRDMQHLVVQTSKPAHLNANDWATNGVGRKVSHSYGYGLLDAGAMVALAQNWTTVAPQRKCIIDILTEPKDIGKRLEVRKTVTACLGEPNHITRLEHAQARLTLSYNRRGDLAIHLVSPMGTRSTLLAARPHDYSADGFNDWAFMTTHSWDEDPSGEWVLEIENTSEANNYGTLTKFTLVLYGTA

Row | Compound | inhibitory effect in TEER assay [1] | furin enzyme pIC50 [2] | EC50 [3] | % inhibition of hydroxyproline in lung ([4]; 10 mg/kg, Oral, Once daily) | % inhibition of total TGFβ in lung (TGFβ in mouse lung; 10 mg/kg, Oral, Once daily) | % inhibition of hydroxyproline in lung [4, 5] | % inhibition of total TGFβ in lung (TGFβ in mouse lung; [5]) | % inhibition of hydroxyproline in lung ([4]; 30 mg/kg, Oral, Once daily) | % inhibition of total TGFβ in lung (TGFβ in mouse lung; 30 mg/kg, Oral, Once daily)
1 | CN(C)C(=O)COC(=O)Cc1ccc(OC(=O)c2ccc(NC(=N)N)cc2)cc1 [Camostat mesylate, reference compound] | only partially inhibitory and modestly Inhibitory |  |  |  |  |  |  |  | 
2 | O=C(O)CC1CCN(Cc2cc(Oc3cnc(N4CCNCC4)nc3)nc(-c3cc(Cl)cc(Cl)c3)c2)CC1 [Example 206, 2-(1-((2-(3,5-Dichlorophenyl)-6-((2-(piperazin-1-yl)pyrimidin-5-yl)oxy)pyridin-4-yl)methyl)piperidin-4-yl)acetic acid] |  | 8.6 | 25.1 nM | 6% | −11% |  |  |  | 
3 | CS(=O)(=O)CCCN1CCN(c2ncc(Oc3cc(CN4CCC(CC(=O)O)CC4)cc(-c4cc(Cl)cc(Cl)c4)n3)cn2)CC1 [Example 242, 2-(1-((2-(3,5-Dichlorophenyl)-6-((2-(4-(3-(methylsulfonyl)propyl)piperazin-1-yl)pyrimidin-5-yl)oxy)pyridin-4-yl)methyl)piperidin-4-yl)acetic acid] |  | 8.6 | 25.1 nM | −1% | 40* % |  |  |  | 
4 | CC(=O)NCC1CCN(Cc2cc(Oc3cnc(N4CCN(CCC(=O)O)CC4)nc3)nc(-c3cc(Cl)cc(Cl)c3)c2)CC1 [Example 263, 3-(4-(5-((4-((4-(acetamidomethyl)piperidin-1-yl)methyl)-6-(3,5-dichlorophenyl)pyridin-2-yl)oxy)pyrimidin-2-yl)piperazin-1-yl)propanoic acid] |  | 9.8 | 10 nM |  |  | 60* % | 86* % |  | 
5 | C[C@@H](O)CN1CCN(c2ncc(Oc3cc(CN4CCC(CC(=O)O)CC4)cc(-c4cc(Cl)cc(Cl)c4)n3)cn2)CC1 [Example 298, (R)-2-(1-((2-(3,5-Dichlorophenyl)-6-((2-(4-(2-hydroxypropyl)piperazin-1-yl)pyrimidin-5-yl)oxy)pyridin-4-yl)methyl)piperidin-4-yl)acetic acid] |  | 9.2 | 20 nM | 16* % | 23* % |  |  |  | 
6 | O=C(O)CC1CCN(Cc2cc(Oc3cnc(N4CCN(CCO)CC4)nc3)nc(-c3cc(Cl)cc(Cl)c3)c2)CC1 [Example 306, 2-(1-((2-(3,5-dichlorophenyl)-6-((2-(4-(2-hydroxyethyl)piperazin-1-yl)pyrimidin-5-yl)oxy)pyridin-4-yl)methyl)piperidin-4-yl)acetic acid] |  | 8.9 | 25.1 nM | 11% | 31* % |  |  |  | 
7 | O=C(O)CC1CCN(Cc2cc(Oc3cnc(N4CCN5CCC4C5)nc3)nc(-c3cc(Cl)cc(Cl)c3)c2)CC1 (stereo not shown) [Example 334, 2-(1-((2-((2-(1,4-Diazabicyclo[3.2.1]octan-4-yl)pyrimidin-5-yl)oxy)-6-(3,5-dichlorophenyl)pyridin-4-yl)methyl)piperidin-4-yl)acetic acid, 4 hydrochloride] |  | 8.9 | 20 nM |  |  |  |  | 34* % | 36* %
8 | CN1CCN(c2cnc(Oc3cc(CN4CCC(CC(=O)O)CC4)cc(-c4cc(Cl)cc(Cl)c4)n3)cn2)CC1 [Example 339, 2-(1-((2-(3,5-Dichlorophenyl)-6-((5-(4-methylpiperazin-1-yl)pyrazin-2-yl)oxy)pyridin-4-yl)methyl)piperidin-4-yl)acetic acid] |  | 8.7 | 50.1 nM | 4% | 22% |  |  |  | 
9 | CN1CCCN(c2cnc(Oc3cc(CN4CCC(CC(=O)O)CC4)cc(-c4cc(Cl)cc(Cl)c4)n3)cn2)CC1 [Example 340, 2-(1-((2-(3,5-dichlorophenyl)-6-((5-(4-methyl-1,4-diazepan-1-yl)pyrazin-2-yl)oxy)pyridin-4-yl)methyl)piperidin-4-yl)acetic acid] |  | 8.8 | 20 nM |  |  |  |  | 21* % | 26* %
10 | CC(=O)NCC1CCN(Cc2cc(Oc3cnc(N4CCN(CCC(C)C(=O)O)CC4)nc3)nc(-c3cc(Cl)cc(Cl)c3)c2)CC1 (stereo not shown) [Example 369, 4-(4-(5-((4-((4-(Acetamidomethyl)piperidin-1-yl)methyl)-6-(3,5-dichlorophenyl)pyridin-2-yl)oxy)pyrimidin-2-yl)piperazin-1-yl)-2-methylbutanoic acid, 4 hydrochloride] |  | 9.3 | 5.01 nM | 62* % | 75* % |  |  |  | 
